Laboratory results published in patent US8895571B2, “Isoindolinone and pyrrolopyridinone derivatives as Akt inhibitors” (Incyte Corporation, priority 2011, dated 2014).

Columns and labels:
Format in all cases: biochemical
[1] = target: T1, Full length Akt1 (Homo sapiens, UniProt P31749); test: In vitro Akt kinase enzymatic assay (HTRF), Akt1; conditions: 0.4 nM Akt1, substrate solution with 5 mM ATP, 25° C. 1 hr
T1 construct: Full length Akt1 (cat #P2999); purchased PerkinElmer P2999
Method: (§1) Compounds herein were tested for inhibitory activity of Akt targets according to the following in vitro assay. Full length Akt1 (cat #P2999), Akt2 (cat #PV3184), Akt3 (cat #PV3185), peptide substrate, Ulight-Crosstide (cat #TRF0106-M), Ultra-Europium anti-phospho-Crosstide (cat #TRF-0202-M), and 10×LANCE detection buffer (cat #CR97-100) were purchased from PerkinElmer. In general, assay buffer conditions were chosen based on obtaining optimal enzymatic and linear activities. The assay buffer contains 50 mM HEPES, 10 mM MgCl2, 5 mM DTT, 0.005% Tween20 at pH 7.8. Compound stock (0.001 mM) was prepared in DMSO. The compound plate was prepared by 3-fold and 11-point serial dilutions. 0.5 μL of the compound in DMSO was transferred from the compound plate to the assay plate. Enzyme solution (0.4 nM of Akt1, 0.6 nM of Akt2 or 0.6 nM of Akt3) was prepared in the assay buffer. Note that the enzyme concentration given is based on the given stock concentration reported by the vendor. 0.1 μM substrate solution was prepared in the assay buffer with addition of 5 mM ATP. 10 μL of the enzyme solution was added to the assay plate and then 10 μL of substrate solution was added to the assay plate. The plate was protected from light and the reaction was incubated at 25° C. for 1 hr. The reaction was stopped by adding 10 μL of a solution containing 30 mM EDTA, and 3 nM Ultra Europium anti-phospho Crosstide in 1× detection buffer. The plate was incubated for 15-30 min at room temperature and HTRF (homogenous time resolved fluorescence) was measured on a plate reader. Percentage of inhibition was calculated for each concentration and IC50 value was generated from curve fitting. See Table 8 for data related to compounds of the examples.

[2] = target: T2, Full length Akt2 (Homo sapiens, UniProt P31751); test: In vitro Akt kinase enzymatic assay (HTRF), Akt2; conditions: 0.6 nM Akt2, substrate solution with 5 mM ATP, 25° C. 1 hr
T2 construct: Full length Akt1 (cat #P2999), Akt2 (cat #PV3184); purchased PerkinElmer PV3184
Method: as §1

[3] = target: T3, Full length PKA (Homo sapiens, UniProt P17612); test: PKA in vitro enzymatic assay (HTRF); conditions: 0.035 nM enzyme solution, substrate solution with 5 mM ATP, 25° C. 1 hr
T3 construct: Full length PKA (cat #P2912); purchased Invitrogen P2912
Method: Full length PKA (cat #P2912), peptide substrate, fluorescein CREBtide peptide (cat #PV3508), Tb-Crebtide p-S133 Ab (cat #PV3566), and Lanthascreen TR-FRET Dilution Buffer stored (part # PV3574) were purchased from Invitrogen. In general, assay buffer conditions were chosen based on obtaining optimal and linear enzymatic activities. The assay buffer contains 50 mM HEPES, 10 mM MgCl2, 5 mM DTT, 0.005% Tween20 at pH 7.8. Compound stock (0.001 mM) was prepared in DMSO. The compound plate was prepared by 3-fold and 11-point serial dilutions. 0.5 μL of the compound in DMSO was transferred from the compound plate to the assay plate. 0.035 nM enzyme solution was prepared in the assay buffer. Note that the enzyme concentration given is based on the given stock concentration reported by the vendor. 0.1 μM substrate solution was prepared in the assay buffer with addition of 5 mM ATP. 10 μL of the enzyme solution was added to the assay plate and then 10 μL of substrate solution was added to the assay plate. The plate was protected from light and the reaction was incubated at 25° C. for 1 hr. The reaction was stopped by adding 10 μL of a solution containing 30 mM EDTA, and 1.5 nM Tb-Crebtide p-S133 Ab in 1× detection buffer. The plate was incubated for 15-30 min at room temperature and HTRF (homogenous time resolved fluorescence) was measured on a plate reader. Percentage of inhibition was calculated for each concentration and IC50 value was generated from curve fitting. See Table 8 for data related to compounds of the examples.

[4] = target: T4, Full length Akt3 (Homo sapiens, UniProt Q9Y243); test: In vitro Akt kinase enzymatic assay (HTRF), Akt3; conditions: 0.6 nM Akt3, substrate solution with 5 mM ATP, 25° C. 1 hr
T4 construct: Full length Akt1 (cat #P2999), Akt2 (cat #PV3184), Akt3 (cat #PV3185); purchased PerkinElmer PV3185
Method: as §1

T1 sequence (P31749 whole entry): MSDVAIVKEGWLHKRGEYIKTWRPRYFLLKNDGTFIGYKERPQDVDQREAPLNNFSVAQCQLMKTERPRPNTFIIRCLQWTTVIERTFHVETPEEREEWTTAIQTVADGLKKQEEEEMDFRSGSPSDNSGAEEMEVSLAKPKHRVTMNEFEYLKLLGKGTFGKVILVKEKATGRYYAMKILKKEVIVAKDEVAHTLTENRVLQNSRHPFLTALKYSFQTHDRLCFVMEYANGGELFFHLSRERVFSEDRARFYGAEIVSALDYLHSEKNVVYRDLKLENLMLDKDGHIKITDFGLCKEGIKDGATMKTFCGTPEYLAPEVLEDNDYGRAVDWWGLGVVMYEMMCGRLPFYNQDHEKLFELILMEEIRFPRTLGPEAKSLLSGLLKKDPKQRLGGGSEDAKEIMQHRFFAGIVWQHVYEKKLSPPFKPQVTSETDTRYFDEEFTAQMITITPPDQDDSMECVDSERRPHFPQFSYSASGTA
T2 sequence (P31751 whole entry): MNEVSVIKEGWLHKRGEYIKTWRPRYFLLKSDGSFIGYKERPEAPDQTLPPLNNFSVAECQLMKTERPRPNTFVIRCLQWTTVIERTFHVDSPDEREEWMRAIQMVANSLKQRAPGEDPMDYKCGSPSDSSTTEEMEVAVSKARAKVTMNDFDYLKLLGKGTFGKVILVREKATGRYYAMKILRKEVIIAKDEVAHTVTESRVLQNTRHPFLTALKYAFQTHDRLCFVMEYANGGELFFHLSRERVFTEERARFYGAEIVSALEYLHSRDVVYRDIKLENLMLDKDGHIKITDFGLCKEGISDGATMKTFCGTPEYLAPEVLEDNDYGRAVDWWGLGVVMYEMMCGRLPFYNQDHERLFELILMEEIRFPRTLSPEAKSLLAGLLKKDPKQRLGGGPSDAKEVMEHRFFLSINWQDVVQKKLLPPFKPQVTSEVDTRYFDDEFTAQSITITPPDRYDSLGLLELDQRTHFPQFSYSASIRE
T4 sequence (Q9Y243 whole entry): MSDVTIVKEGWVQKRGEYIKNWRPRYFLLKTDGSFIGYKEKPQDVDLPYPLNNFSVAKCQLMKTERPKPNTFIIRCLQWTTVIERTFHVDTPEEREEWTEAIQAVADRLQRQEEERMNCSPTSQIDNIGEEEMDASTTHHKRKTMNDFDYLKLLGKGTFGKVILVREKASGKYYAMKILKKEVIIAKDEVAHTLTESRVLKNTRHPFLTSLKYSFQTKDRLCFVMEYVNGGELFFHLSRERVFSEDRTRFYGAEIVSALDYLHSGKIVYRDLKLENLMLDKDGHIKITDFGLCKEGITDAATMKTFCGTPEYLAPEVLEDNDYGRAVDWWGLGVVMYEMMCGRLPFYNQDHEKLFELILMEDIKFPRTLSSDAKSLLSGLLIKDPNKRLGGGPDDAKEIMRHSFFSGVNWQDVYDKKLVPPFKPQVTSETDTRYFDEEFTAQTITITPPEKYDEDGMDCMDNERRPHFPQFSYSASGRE

Compound | IC50 [1] [µM] | IC50 [2] [µM] | IC50 [3] [µM] | IC50 [4] [µM]
CN(C)CC(c1ccccc1)N1Cc2cc(-c3ccnn3C)ccc2C1=O (centres unmarked) [Example 115] | 0.5 to 5 | > 5 | > 5 | > 5
Cn1ncc(-c2cccs2)c1-c1ccc2c(c1)CN([C@H](CN)Cc1cccc(F)c1)C2=O [Example 15, 2-[(1S)-2-amino-1-(3-fluorobenzyl)ethyl]-5-[1-methyl-4-(2-thienyl)-1H-pyrazol-5-yl]isoindolin-1-one] | 0.5 to 5 | > 5 | > 5 | < 0.5
Cn1ncc(-c2ccc(F)nc2)c1-c1ccc2c(c1)CN([C@H](CN)Cc1cccc(F)c1)C2=O [Example 25, 2-[(1S)-2-amino-1-(3-fluorobenzyl)ethyl]-5-[4-(6-fluoropyridin-3-yl)-1-methyl-1H-pyrazol-5-yl]isoindolin-1-one] | > 5 | > 5 | > 5 | > 5
Cn1ncc(Cl)c1-c1ccc2c(c1)CN(C(CN)c1ccc(F)cc1)C2=O (centres unmarked) [Example 124, 2-[2-amino-1-(4-fluorophenyl)ethyl]-5-(4-chloro-1-methyl-1H-pyrazol-5-yl)isoindolin-1-one] | 0.5 to 5 | 0.5 to 5 | > 5 | 0.5 to 5
Cn1ncc(-c2ccc3ccccc3c2)c1-c1ccc2c(c1)CN([C@H](CN)Cc1cccc(F)c1)C2=O [Example 21, 2-[(1S)-2-amino-1-(3-fluorobenzyl)ethyl]-5-[1-methyl-4-(2-naphthyl)-1H-pyrazol-5-yl]isoindolin-1-one] | 0.5 to 5 | > 5 | > 5 | < 0.5
COc1ccc(C(CN)N2Cc3cc(-c4ccnn4C)ccc3C2=O)cc1 (centres unmarked) [Example 120, 2-[2-amino-1-(4-methoxyphenyl)ethyl]-5-(1-methyl-1H-pyrazol-5-yl)isoindolin-1-one] | > 5 | > 5 | > 5 | > 5
CNC(=O)c1ccc(-c2cnn(C)c2-c2ccc3c(c2)CN([C@H](CN)Cc2cccc(F)c2)C3=O)cn1 [Example 29, 5-(5-{2-[(1S)-2-amino-1-(3-fluorobenzyl)ethyl]-1-oxo-2,3-dihydro-1H-isoindol-5-yl}-1-methyl-1H-pyrazol-4-yl)-N-methylpyridine-2-carboxamide] | 0.5 to 5 | > 5 | > 5 | > 5
CCSCc1cnn(C)c1-c1cc2c(cn1)C(=O)N([C@H](CN)Cc1cccc(F)c1)C2 [Example 98, 2-[(1S)-2-amino-1-(3-fluorobenzyl)ethyl]-6-[4-(ethylthiomethyl)-1-methyl-1H-pyrazol-5-yl]-1,2-dihydro-3H-pyrrolo[3,4-c]pyridin-3-one] | 0.5 to 5 | > 5 | > 5 | 0.5 to 5
Cn1nccc1-c1ccc2c(c1)CN([C@H](CN)Cc1cscn1)C2=O [Example 82, 2-[(1S)-2-amino-1-(1,3-thiazol-4-ylmethyl)ethyl]-5-(1-methyl-1H-pyrazol-5-yl)isoindolin-1-one] | < 0.5 | 0.5 to 5 | > 5 | 0.5 to 5
COc1cccc(C(CN)N2Cc3cc(-c4ccnn4C)ccc3C2=O)c1 (centres unmarked) [Example 119, 2-[2-amino-1-(3-methoxyphenyl)ethyl]-5-(1-methyl-1H-pyrazol-5-yl)isoindolin-1-one] | < 0.5 | < 0.5 | 0.5 to 5 | 0.5 to 5
Cn1nccc1-c1ccc2c(n1)CN([C@H](CN)Cc1ccccc1)C2=O [Example 111, 6-[(1S)-2-amino-1-benzylethyl]-2-(1-methyl-1H-pyrazol-5-yl)-6,7-dihydro-5H-pyrrolo[3,4-b]pyridin-5-one] | 0.5 to 5 | 0.5 to 5 | > 5 | > 5
Cn1nccc1-c1cnn(C)c1-c1ccc2c(c1)CN([C@H](CN)Cc1cccc(F)c1)C2=O [Example 17, 2-[(1S)-2-amino-1-(3-fluorobenzyl)ethyl]-5-(1′,2-dimethyl-1′H,2H-3,4′-bipyrazol-5′-yl)isoindolin-1-one] | > 5 | > 5 | > 5 | > 5

The next lines start with the values.

IC50 [1] [µM] | IC50 [2] [µM] | IC50 [3] [µM] | IC50 [4] [µM] | Compound
< 0.5 | 0.5 to 5 | > 5 | 0.5 to 5 | Cn1nccc1-c1ccc2c(c1)CN([C@H](CN)Cc1cccc(-c3ccsc3)c1)C2=O [Example 84, 2-{(1S)-2-amino-1-[3-(3-thienyl)benzyl]ethyl}-5-(1-methyl-1H-pyrazol-5-yl)isoindolin-1-one]
< 0.5 | 0.5 to 5 | > 5 | 0.5 to 5 | Cn1ncc(Cl)c1-c1ccc2c(n1)CN([C@H](CN)Cc1cccc(F)c1)C2=O [Example 109, 6-[(1S)-2-amino-1-(3-fluorobenzyl)ethyl]-2-(4-chloro-1-methyl-1H-pyrazol-5-yl)-6,7-dihydro-5H-pyrrolo[3,4-b]pyridin-5-one]
< 0.5 | 0.5 to 5 | > 5 | 0.5 to 5 | COc1cccc(C(CN)N2Cc3cc(-c4c(Cl)cnn4C)ccc3C2=O)c1 (centres unmarked) [Example 125, 2-[2-amino-1-(3-methoxyphenyl)ethyl]-5-(4-chloro-1-methyl-1H-pyrazol-5-yl)isoindolin-1-one]
< 0.5 | 0.5 to 5 | > 5 | 0.5 to 5 | Cn1ncc(-c2nccs2)c1-c1ccc2c(c1)CN([C@H](CN)Cc1cccc(F)c1)C2=O [Example 20, 2-[(1S)-2-amino-1-(3-fluorobenzyl)ethyl]-5-[1-methyl-4-(1,3-thiazol-2-yl)-1H-pyrazol-5-yl]isoindolin-1-one]
< 0.5 | 0.5 to 5 | > 5 | 0.5 to 5 | CSCc1cnn(C)c1-c1ccc2c(c1)CN([C@H](CN)Cc1ccccc1)C2=O [Example 59, 2-[(1S)-2-amino-1-benzyl-ethyl]-5-[4-(methylthiomethyl)-1-methyl-1H-pyrazol-5-yl]isoindolin-1-one]
< 0.5 | 0.5 to 5 | > 5 | 0.5 to 5 | CNC[C@H](Cc1cccc(F)c1)N1Cc2cc(-c3c(Cl)cnn3C)ccc2C1=O [Example 30, 5-(4-chloro-1-methyl-1H-pyrazol-5-yl)-2-[(1S)-1-(3-fluorobenzyl)-2-(methylamino)ethyl]isoindolin-1-one]
< 0.5 | 0.5 to 5 | > 5 | 0.5 to 5 | Cn1ncc(Cl)c1-c1ccc2c(c1)CN([C@H](CN)Cc1cccc(-c3ccsc3)c1)C2=O [Example 71, 2-{(1S)-2-amino-1-[3-(3-thienyl)benzyl]ethyl}-5-(4-chloro-1-methyl-1H-pyrazol-5-yl)isoindolin-1-one]
< 0.5 | 0.5 to 5 | > 5 | 0.5 to 5 | Cn1nccc1-c1ccc2c(n1)CN([C@H](CN)Cc1cccc(F)c1)C2=O [Example 110, 6-[(1S)-2-amino-1-(3-fluorobenzyl)ethyl]-2-(1-methyl-1H-pyrazol-5-yl)-6,7-dihydro-5H-pyrrolo[3,4-b]pyridin-5-one]
